{
  "source": "patent US20080058345A1",
  "about": "“Combination Therapy with Mecamylamine for the Treatment of Mood Disorders” (priority 2004, published 2008)",
  "test_system": "individuals with major depression who are partial responders (based on HAM-D scores) to selective serotonin reuptake inhibitors",
  "experiment": "8-week clinical trial of mecamylamine plus SSRI antidepressant versus placebo plus antidepressant",
  "type": "in vivo, human",
  "procedure": "The treatment of depressive symptoms in individuals with major depression who are partial responders (based on HAM-D scores) to selective serotonin reuptake inhibitors (e.g., fluoxetine, sertraline, citalopram, paroxetine, fluvoxamine) was assessed.\nSubjects (n=13) were randomly assigned to one of two groups, designated mecamylamine or MEC and Placebo, respectively, for an 8-week clinical trial. Individuals in the MEC group received mecamylamine plus an antidepressant and those in the placebo group received placebo plus an antidepressant Eleven subjects (n=6 randomized to MEC, n=5 to placebo) have completed this 8-week clinical trial and results are presented for those individuals. Two subjects are currently enrolled in the protocol. No clinical or demographic differences have been found between subjects randomized to MEC versus Placebo (Table). […] These preliminary results support our primary hypothesis that central nAChR antagonism augments SSRI-treated refractory major depression.",
  "data": [
    {"compound": "CNC1(C)C2CCC(C2)C1(C)C", "note": "(stereo not shown) [MEC, Bicyclo(2.2.1)heptan-2-amine, N,2,3,3-tetramethyl-]", "values": [
      {"measurement": "difference between MEC and Placebo groups on any adverse events", "setting": "8-week trial, MEC plus antidepressant versus placebo plus antidepressant", "result": "no significant differences"},
      {"measurement": "adverse event: report of decreased libido (subjects reporting)", "setting": "8-week trial, MEC plus antidepressant, placebo 1/5, p=0.06", "result": "4/5"},
      {"measurement": "adverse event: constipation (subjects reporting)", "setting": "8-week trial, MEC plus antidepressant, placebo 3/5, p=0.11", "result": "5/6"},
      {"measurement": "subjects classified as responders, as assessed by a 50% reduction in HAM-D scores", "setting": "end of 8-week trial, MEC plus antidepressant, n=6 completers, placebo 0/5, p=0.02", "result": "Four out of six"}
    ]}
  ]
}
